# Measurements from patent US9126968B2, “Quinic acid derivative, process for preparation and uses thereof” (NATIONAL APPLIED RESEARCH LABORATORIES, priority 2013, dated 2015).
# “Also recorded” adds a separate entry of the source.
# Experiments:
# [1] = mouse, in vivo
# Method: One of the four mice groups is treated with PBS, and three of the four groups are sensitized with OVA.
# [2] = biological target: CD28 of T-cells and CD80 of B-cells (Homo sapiens, UniProt P10747); assay: unbinding force test; format: binding; details: in the presence of Cyn-1324; about 41.9 pN in its absence; FIG. 7
# Excerpt: In the absence of Cyn-1324, the average unbinding force is about 41.9 pN. Conversely, in the presence of Cyn-1324, the average unbinding force is reduced to about 29.1 pN. The results shown in FIG. 7 provide the physical evidence that Cyn-1324 repulses the binding between CD28 and CD80, thus blocking the signal 2 pathway induced by the interaction of CD28 and co-stimulatory molecules such as CD80 or CD86.
# [3] = system: T-cells; assay: in vitro efficacy test: production of IL-2 from T-cells; format: cell-based; details: compared with cynarin; FIG. 6
# Excerpt: The production of IL-2 is reduced when the activation of T-cells is interfered.
# [4] = single dose toxicity test; details: mouse, in vivo, mice, read-out: maximum tolerance dose (MTD)
# [5] = system: IL-2 expressed from signal 2 pathway of T-cells; assay: in vitro IC50 measurement (reduction of IL-2); format: cell-based; details: T-cell; dosage causing 50% reduction of IL-2; FIG. 8; read-out: IC50 on blocking T-cell immune response
# Excerpt: The IC50 represents the dosage which causes 50% reduction of IL-2 expressed from signal 2 pathway of T-cells.
# [6] = system: OVA-sensitized mice; details: mouse, in vivo
# [7] = system: T-cells; assay: in vitro cytotoxicity test (MTT assay); format: cell-based; details: compared with cynarin, FIG. 5
# Method: The amount of survival T-cells is measured by MTT assay. […] Conversely, they are less cytotoxic than cynarin.
# [8] = system: OVA-sensitized mice; assay: in vivo animal test of immuno-suppressive effect (serum antibodies via ELISA); details: OVA-sensitized BALB/c mice, serum on 14th day, FIG. 9
# Method: The four BALB/c mice groups are treated with phosphate-buffered saline (PBS), ovalbulmin (OVA), OVA/Cyn-1324 or OVA/cyclosporin A (CSA), respectively. CSA is used currently in clinics for suppressing immune response. The 14th-day from the treatments, the serum is collected, and the antibodies such as IgG and IgE are analyzed via ELISA. […] Accordingly, Cyn-1324 is effective for suppressing immune response.
# Chain of CD28 of T-cells and CD80 of B-cells (P10747 19-220): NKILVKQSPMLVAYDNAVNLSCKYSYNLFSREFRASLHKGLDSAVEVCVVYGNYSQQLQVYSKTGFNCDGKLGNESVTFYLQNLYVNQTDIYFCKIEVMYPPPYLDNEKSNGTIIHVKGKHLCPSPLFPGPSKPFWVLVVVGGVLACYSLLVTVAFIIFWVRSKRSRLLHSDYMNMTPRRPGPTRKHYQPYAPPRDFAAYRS
compound,measurement,setting,value
"CC(C)CNC(=O)[C@@]1(O)C[C@@H](O)[C@@H]2OC3(CCCCC3)O[C@@H]2C1 [Cyn-1324, (3aR,5R,7R,7aS)-5,7-dihydroxy-N-(2-methylpropyl)hexahydrospiro[1,3-benzodioxole-2,1′-cyclohexane]-5-carboxamide]",body weight variation versus time,[1],steadily increased
same,average unbinding force,[2],about 29.1 pN
same,efficacy to suppress T-cell activation (production of IL-2),[3],higher (or equal) efficacy; also recorded: high efficacy
same,MTD,[4],~400 mg/kg
same,IC50,[5],~20 µg/mL
same,side effect: body swollen,[6],does not cause the similar side effect
same,cell survival rates of T-cells (cytotoxicity),[7],higher than cynarin; also recorded: lowest cytotoxicity
same,IgE decrease,[8],about 23%
same,IgG decrease,[8],about 30%
